# According to patent US8846653B2, “Delta-tocotrienol treatment and prevention of pancreatic cancer” (University of South Florida, priority 2006, dated 2014):
# Tests used:
# Type in all cases: cell-based, human
# BXPC3 cells = assay: MTT assay of BXPC3 cultures, single 50 μM dose; design: MTT assay result, run 1 / MTT assay result, run 2 / MTT assay result, run 3 / MTT assay result, run 4 / MTT assay result, run 5 / MTT assay result, run 6 / MTT assay result, run 7 / MTT assay result, av (average) / MTT assay result, av-blank / MTT assay result, av: unit not given here; details: BXPC3, 50 μM; for MTT assay result, av-blank: average minus blank; for MTT assay result, av (average) / MTT assay result, av: average of 7 runs
# Description: BXPC3 cells were cultured in complete […] media containing 10% fetal bovine serum (FBS) and 1% penicillin-streptomycin, and 1% L-glutamine. BxPc-3 pancreatic cancer cells were cultured in complete RPMI media containing 10% fetal bovine serum (FBS), and 1% penicillin-streptomycin, 1% HEPES buffer, 1% sodium pyruvate and 1% L-glutamine HPDE6-C7 cells were cultured in serum-free keratinocyte SFM media. All cells were maintained at 37° C. in a humidified incubator with 5% CO2. The cells were treated with a single 50 μM dose of vehicle (vehicle only, may be a solvent), T3 alpha (alpha tocotrienol), T3 beta (beta tocotrienol), T3 gamma (gamma tocotrienol), T3 delta (delta tocotrienol), T alpha (alpha tocopherol), T beta (beta tocopherol), TS (tocopherol succinate), GG (geranylgeraniol), SA (succinic acid). A control (no treatment) culture was grown alongside the treatments for comparison. Cell viability was measured using MTT assay at preselect times of 48 or 120 hours after treatment.
# [1] = tested on: SW1990 pancreatic cancer cells; assay: MTS assay of SW1990 cultures, single 50 μM dose; details: SW1990, 50 μM
# Description: SW1990 pancreatic cancer cells […] were cultured in complete DMEM media containing 10% fetal bovine serum (FBS) and 1% penicillin-streptomycin, and 1% L-glutamine. BxPc-3 pancreatic cancer cells were cultured in complete RPMI media containing 10% fetal bovine serum (FBS), and 1% penicillin-streptomycin, 1% HEPES buffer, 1% sodium pyruvate and 1% L-glutamine. HPDE6-C7 cells were cultured in serum-free keratinocyte SFM media. All cells were maintained at 37° C. in a humidified incubator with 5% CO2. The cells were treated with a single 50 μM dose of vehicle (ethanol extracted olive oil), T3 alpha (alpha tocotrienol), T3 beta (beta tocotrienol), T3 gamma (gamma tocotrienol), T3 delta (delta tocotrienol), T alpha (alpha tocopherol), T beta (beta tocopherol), TS (tocopherol succinate), GG (geranylgeraniol), SA (succinic acid). A control culture (i.e., only vehicle with no treatment) was grown alongside the treatments for comparison. Cell viability was measured using MTS assay at preselect times of 24, 48, or 72 hours after treatment.
# MiaPaCa-2 cells = assay: MTT assay of MiaPaCa2 cultures, single 50 μM dose; design: rel amt (relative value set to the control): unit not given here; details: MiaPaCa2, 50 μM; for MTT assay result, av-blank: average minus blank; for MTT assay result, av: average of 7 runs
# Description: MiaPaCa-2, BxPc-3, and HPDE6-C7 cells were cultured as described above, and treated with a single 50 μM dose of vehicle (ethanol extracted olive oil), T3 alpha (alpha tocotrienol), T3 beta (beta tocotrienol), T3 gamma (gamma tocotrienol), T3 delta (delta tocotrienol), T alpha (alpha tocopherol), T beta (beta tocopherol), TS (tocopherol succinate), GG (geranylgeraniol), SA (succinic acid). A control culture (vehicle only with no treatment) was grown alongside the treatments for comparison. Cell viability was measured using MTT assay at preselect times of 48 or 120 hours after treatment.
compound,measurement,setting,value
alpha tocotrienol [T3 alpha],rel amt (relative value set to the control),BXPC3 cells; 48 hours,104
same,"MTT assay result, av-blank",BXPC3 cells; 48 hours,0.236
same,"MTT assay result, av (average)",BXPC3 cells; 48 hours,0.285
same,"MTT assay result, run 1",BXPC3 cells; 48 hours,0.279
same,"MTT assay result, run 2",BXPC3 cells; 48 hours,0.275
same,"MTT assay result, run 3",BXPC3 cells; 48 hours,0.295
same,"MTT assay result, run 4",BXPC3 cells; 48 hours,0.301
same,"MTT assay result, run 5",BXPC3 cells; 48 hours,0.3
same,"MTT assay result, run 6",BXPC3 cells; 48 hours,0.273
same,"MTT assay result, run 7",BXPC3 cells; 48 hours,0.275
same,rel amt (relative value set to the control),BXPC3 cells; 120 hours (5 days),97
same,"MTT assay result, av-blank",BXPC3 cells; 120 hours (5 days),0.558
same,"MTT assay result, av",BXPC3 cells; 120 hours (5 days),0.613
same,"MTT assay result, run 1",BXPC3 cells; 120 hours (5 days),0.584
same,"MTT assay result, run 2",BXPC3 cells; 120 hours (5 days),0.637
same,"MTT assay result, run 3",BXPC3 cells; 120 hours (5 days),0.594
same,"MTT assay result, run 4",BXPC3 cells; 120 hours (5 days),0.63
same,"MTT assay result, run 5",BXPC3 cells; 120 hours (5 days),0.62
same,"MTT assay result, run 6",BXPC3 cells; 120 hours (5 days),0.61
same,"MTT assay result, run 7",BXPC3 cells; 120 hours (5 days),0.618
same,rel amnt (relative value set to the control),[1]; 24 hours,121
same,"MTS assay result, run 1",[1]; 24 hours,0.168
same,"MTS assay result, run 2",[1]; 24 hours,0.183
same,"MTS assay result, run 3",[1]; 24 hours,0.175
same,"MTS assay result, run 4",[1]; 24 hours,0.148
same,"MTS assay result, run 5",[1]; 24 hours,0.195
same,"MTS assay result, run 6",[1]; 24 hours,0.176
same,"MTS assay result, run 7",[1]; 24 hours,0.206
same,"MTS assay result, run 8",[1]; 24 hours,0.172
same,"MTS assay result, run 9",[1]; 24 hours,0.178
same,rel amnt (relative value set to the control),[1]; 48 hours,116
same,"MTS assay result, run 1",[1]; 48 hours,0.168
same,"MTS assay result, run 2",[1]; 48 hours,0.162
same,"MTS assay result, run 3",[1]; 48 hours,0.16
same,"MTS assay result, run 4",[1]; 48 hours,0.146
same,"MTS assay result, run 5",[1]; 48 hours,0.175
same,"MTS assay result, run 6",[1]; 48 hours,0.205
same,"MTS assay result, run 7",[1]; 48 hours,0.2
same,"MTS assay result, run 8",[1]; 48 hours,0.187
same,"MTS assay result, run 9",[1]; 48 hours,0.175
same,rel amnt (relative value set to the control),[1]; 72 hours,61
same,"MTS assay result, run 1",[1]; 72 hours,0.279
same,"MTS assay result, run 2",[1]; 72 hours,0.282
same,"MTS assay result, run 3",[1]; 72 hours,0.29
same,"MTS assay result, run 4",[1]; 72 hours,0.238
same,"MTS assay result, run 5",[1]; 72 hours,0.302
same,"MTS assay result, run 6",[1]; 72 hours,0.279
same,"MTS assay result, run 7",[1]; 72 hours,0.25
same,"MTS assay result, run 8",[1]; 72 hours,0.254
same,"MTS assay result, run 9",[1]; 72 hours,0.273
same,rel amt (relative value set to the control),MiaPaCa-2 cells; 48 hours,94
same,"MTT assay result, av-blank",MiaPaCa-2 cells; 48 hours,0.292
same,"MTT assay result, av",MiaPaCa-2 cells; 48 hours,0.338
same,"MTT assay result, run 1",MiaPaCa-2 cells; 48 hours,0.349
same,"MTT assay result, run 2",MiaPaCa-2 cells; 48 hours,0.341
same,"MTT assay result, run 3",MiaPaCa-2 cells; 48 hours,0.356
same,"MTT assay result, run 4",MiaPaCa-2 cells; 48 hours,0.329
same,"MTT assay result, run 5",MiaPaCa-2 cells; 48 hours,0.349
same,"MTT assay result, run 6",MiaPaCa-2 cells; 48 hours,0.316
same,"MTT assay result, run 7",MiaPaCa-2 cells; 48 hours,0.323
same,rel amt (relative value set to the control),MiaPaCa-2 cells; 120 hours (5 days),84
same,"MTT assay result, av-blank",MiaPaCa-2 cells; 120 hours (5 days),1.528
same,"MTT assay result, av",MiaPaCa-2 cells; 120 hours (5 days),1.580
same,"MTT assay result, run 1",MiaPaCa-2 cells; 120 hours (5 days),1.497
same,"MTT assay result, run 2",MiaPaCa-2 cells; 120 hours (5 days),1.573
same,"MTT assay result, run 3",MiaPaCa-2 cells; 120 hours (5 days),1.569
same,"MTT assay result, run 4",MiaPaCa-2 cells; 120 hours (5 days),1.55
same,"MTT assay result, run 5",MiaPaCa-2 cells; 120 hours (5 days),1.811
same,"MTT assay result, run 6",MiaPaCa-2 cells; 120 hours (5 days),1.589
same,"MTT assay result, run 7",MiaPaCa-2 cells; 120 hours (5 days),1.47
"CC(C)=CCC/C(C)=C/CC/C(C)=C/CC[C@]1(C)CCc2c(C)c(O)cc(C)c2O1 [T3 beta, beta tocotrienol]",rel amt (relative value set to the control),BXPC3 cells; 48 hours,95
same,"MTT assay result, av-blank",BXPC3 cells; 48 hours,0.216
same,"MTT assay result, av (average)",BXPC3 cells; 48 hours,0.265
same,"MTT assay result, run 1",BXPC3 cells; 48 hours,0.263
same,"MTT assay result, run 2",BXPC3 cells; 48 hours,0.261
same,"MTT assay result, run 3",BXPC3 cells; 48 hours,0.27
same,"MTT assay result, run 4",BXPC3 cells; 48 hours,0.254
same,"MTT assay result, run 5",BXPC3 cells; 48 hours,0.278
same,"MTT assay result, run 6",BXPC3 cells; 48 hours,0.255
same,"MTT assay result, run 7",BXPC3 cells; 48 hours,0.274
same,rel amt (relative value set to the control),BXPC3 cells; 120 hours (5 days),72
same,"MTT assay result, av-blank",BXPC3 cells; 120 hours (5 days),0.417
same,"MTT assay result, av",BXPC3 cells; 120 hours (5 days),0.472
same,"MTT assay result, run 1",BXPC3 cells; 120 hours (5 days),0.468
same,"MTT assay result, run 2",BXPC3 cells; 120 hours (5 days),0.512
same,"MTT assay result, run 3",BXPC3 cells; 120 hours (5 days),0.495
same,"MTT assay result, run 4",BXPC3 cells; 120 hours (5 days),0.481
same,"MTT assay result, run 5",BXPC3 cells; 120 hours (5 days),0.457
same,"MTT assay result, run 6",BXPC3 cells; 120 hours (5 days),0.483
same,"MTT assay result, run 7",BXPC3 cells; 120 hours (5 days),0.411
same,rel amnt (relative value set to the control),[1]; 24 hours,99
same,"MTS assay result, run 1",[1]; 24 hours,0.164
same,"MTS assay result, run 2",[1]; 24 hours,0.168
same,"MTS assay result, run 3",[1]; 24 hours,0.167
same,"MTS assay result, run 4",[1]; 24 hours,0.123
same,"MTS assay result, run 5",[1]; 24 hours,0.138
same,"MTS assay result, run 6",[1]; 24 hours,0.143
same,"MTS assay result, run 7",[1]; 24 hours,0.126
same,"MTS assay result, run 8",[1]; 24 hours,0.134
same,"MTS assay result, run 9",[1]; 24 hours,0.145
same,rel amnt (relative value set to the control),[1]; 48 hours,68
same,"MTS assay result, run 1",[1]; 48 hours,0.108
same,"MTS assay result, run 2",[1]; 48 hours,0.093
same,"MTS assay result, run 3",[1]; 48 hours,0.09
same,"MTS assay result, run 4",[1]; 48 hours,0.104
same,"MTS assay result, run 5",[1]; 48 hours,0.109
same,"MTS assay result, run 6",[1]; 48 hours,0.117
same,"MTS assay result, run 7",[1]; 48 hours,0.1
same,"MTS assay result, run 8",[1]; 48 hours,0.102
same,"MTS assay result, run 9",[1]; 48 hours,0.104
same,rel amnt (relative value set to the control),[1]; 72 hours,69
same,"MTS assay result, run 1",[1]; 72 hours,0.349
same,"MTS assay result, run 2",[1]; 72 hours,0.316
same,"MTS assay result, run 3",[1]; 72 hours,0.33
same,"MTS assay result, run 4",[1]; 72 hours,0.298
same,"MTS assay result, run 5",[1]; 72 hours,0.323
same,"MTS assay result, run 6",[1]; 72 hours,0.287
same,"MTS assay result, run 7",[1]; 72 hours,0.28
same,"MTS assay result, run 8",[1]; 72 hours,0.275
same,"MTS assay result, run 9",[1]; 72 hours,0.307
same,rel amt (relative value set to the control),MiaPaCa-2 cells; 48 hours,62
same,"MTT assay result, av-blank",MiaPaCa-2 cells; 48 hours,0.193
same,"MTT assay result, av",MiaPaCa-2 cells; 48 hours,0.239
same,"MTT assay result, run 1",MiaPaCa-2 cells; 48 hours,0.272
same,"MTT assay result, run 2",MiaPaCa-2 cells; 48 hours,0.235
same,"MTT assay result, run 3",MiaPaCa-2 cells; 48 hours,0.233
same,"MTT assay result, run 4",MiaPaCa-2 cells; 48 hours,0.226
same,"MTT assay result, run 5",MiaPaCa-2 cells; 48 hours,0.252
same,"MTT assay result, run 6",MiaPaCa-2 cells; 48 hours,0.219
same,"MTT assay result, run 7",MiaPaCa-2 cells; 48 hours,0.239
same,rel amt (relative value set to the control),MiaPaCa-2 cells; 120 hours (5 days),53
same,"MTT assay result, av-blank",MiaPaCa-2 cells; 120 hours (5 days),0.966
same,"MTT assay result, av",MiaPaCa-2 cells; 120 hours (5 days),1.018
same,"MTT assay result, run 1",MiaPaCa-2 cells; 120 hours (5 days),0.97
same,"MTT assay result, run 2",MiaPaCa-2 cells; 120 hours (5 days),0.781
same,"MTT assay result, run 3",MiaPaCa-2 cells; 120 hours (5 days),0.977
same,"MTT assay result, run 4",MiaPaCa-2 cells; 120 hours (5 days),1.154
same,"MTT assay result, run 5",MiaPaCa-2 cells; 120 hours (5 days),1.408
same,"MTT assay result, run 6",MiaPaCa-2 cells; 120 hours (5 days),0.944
same,"MTT assay result, run 7",MiaPaCa-2 cells; 120 hours (5 days),0.891
